Columns and labels:
[1] = test system: cell culture
[2] = test system: chicken white blood cells; experiment: Intracellular accumulation in chicken white blood cells; format: in vitro ADME; conditions: chicken white blood cells, 10 μg/mL
Description: (§1) Pig blood was collected in Heparin-coated BD vacutainers (6). 20 mL of blood and 30 mL of phosphate buffered saline (PBS) were mixed in a 50 mL conical centrifuge tube. This was repeated in order to obtain 3 such tubes. The mixtures were centrifuged for 10 min at 2050×g. The white blood cells, together with some red blood cells below, were harvested into a 50 mL conical centrifuge tube. PBS was added to about 50 mL. A 63% solution of Percoll was made as follows: 6.3 mL Percoll (Sigma), 1.0 mL 1.5 M NaCl, 2.7 mL H2O. 10 mL of 63% Percoll was added to each of two 50 mL conical centrifuge tubes. 25 mL of the resuspended white blood cells were carefully layered on top of the each of the Percoll solutions. A sharp interface was produced. The material was centrifuged at 3000×g for 10 min. […] The white blood cells were harvested in PBS (50 mL) and centrifuged at 500×g for 10 min. The cell pellet was resuspended in medium (Glasgow minimum essential medium containing penicillin and streptomycin). A viable cell count was made using trypan blue. The same method used for isolation of pig WBCs was used for the chicken WBCs, with the exception that heparin (100 I.U./mL) was prepared and mixed with an equal volume of chicken whole blood.
All tubes were placed on a rotary mixing machine, at 37° C. Supernatant and cell samples were harvested at the times described in the figure legends. Duplicate samples were used for each antibiotic for each time point.
(§2) All the supernatant and cell samples were transported frozen (at approximately −20° C.) to York Bioanalytical Solutions (York, England) for analysis. Briefly, 0.25 g of buffer (RPMI medium containing 10% FCS) was weighed into a polypropylene tube. A 50 μL volume of the appropriate working solution was added to the quality control (QC) samples. Methanol (50 μL) was added to each blank sample used for preparation of calibration standards, recovery samples and reagent blanks. A 2.5 mL volume of 0.1 M phosphate buffer was added to each sample, vortex mixed for approximately 1 min and then centrifuged at 3220×g for 10 min at 4° C.
(§3) For the liquid-liquid clean-up phase, an aliquot (100 μL) of the supernatant was transferred to a polypropylene tube. The pH was adjusted to pH 8-8.5 by the addition of 0.1 M NaOH, and vortex mixed. Ethyl acetate (5 mL) was added and after capping, the whole mixture was shaken for 10 min and then centrifuged at 3220×g for 10 min at 4° C.
(§4) Ammonium acetate (20 mM; pH native)—formic acid, 1000:3, v/v (100 μL) was added to each well in a 2 mL polypropylene collection plate. An aliquot of the ethyl acetate mixture (100 μL) was transferred to the polypropylene collection plate and evaporated under nitrogen (40° C.) until the ethyl acetate was fully evaporated whilst the ammonium acetate remained. Methanol (100 μL) was added to each well, excluding the calibration standards.
(§5) To each well containing a calibration standard, 100 μL of the appropriate calibration working solution was added. Samples were then vortex mixed for at least 10 min and submitted for liquid chromatography with tandem mass spectrometric analysis. The method stated was applicable to the samples of media (and the calibration standards and quality control samples).
(§6) For the cells, the sample tubes were weighed, and 100 μL of acetonitrile was added. The samples were vortex mixed for 10 sec, then centrifuged at 10285×g at 4° C. for 5 min. The sample was transferred to a polypropylene tube. The original sample tube was washed with 0.1 M phosphate buffer (1 mL). This was transferred to the polypropylene tube. A second wash of 1 mL was made, then a final wash of 0.5 mL. The polypropylene tube was now at the same stage as the end of the liquid extraction, but with the cells present rather than media. This was then taken through the sample preparation as described above. […]

[3] = test system: LLC-PK1 cells; experiment: Intracellular accumulation in pig kidney epithelial cells; format: in vitro ADME; conditions: LLC-PK1, 10 μg/mL
Description: LLC-PKI cells in 6 cm^2 plastic tissue culture dishes were incubated with 10 μg/mL of the different macrolides. Cells and medium were harvested as described above at 30, 75 and 120 min.
as §2, §3, §4, §5
(§7) For the cells, the sample tubes were weighed, and 100 μL of acetonitrile was added. The samples were vortex mixed for 10 sec, then centrifuged at 10285×g at 4° C. for 5 min. The sample was transferred to a polypropylene tube. The original sample tube was washed with 0.1 M phosphate buffer (1 mL). This was transferred to the polypropylene tube. A second wash of 1 mL was made, then a final wash of 0.5 mL. The polypropylene tube was now at the same stage as the end of the liquid extraction, but with the cells present rather than media. This was then taken through the sample preparation as described above. The original sample tubes were allowed to dry (i.e. any remaining solvent evaporated off) and were then reweighed to determine the weight of cells in the sample, to allow the concentration per gram of cells to be determined.

[4] = test system: Caco-2 cells; experiment: Intracellular accumulation and trans-epithelial transport in polarised Caco-2 cells; format: in vitro ADME, human; conditions: Caco-2, 10 μg/mL, apical administration
Description: Caco-2 cells were seeded at a density of 0.8×10^6 cells per well of a Transwell Clear filter 6 well plate, 0.4 μm pore size. The cells were incubated with 2 mL medium in both apical and basolateral chambers. This medium was replaced every 2 days for 10-14 days. Transepithelial resistance was measured using Millicell ERS apparatus (Millipore) at day 7, 10 and/or 14 in order to identify when the cells had become polarised. Readings of >1000 Ω were indicative of polarised cells. […]
as §2, §3, §4, §5, §7

[5] = test system: pig white blood cells; experiment: Intracellular accumulation in pig white blood cells; format: in vitro ADME
Description: as §1
Cells were incubated with 10 mg/mL of each antibiotic. All tubes were placed on a rotary mixing machine, at 37° C. Supernatant and cell samples were harvested at the times described in the figure legends. Duplicate samples were used for each antibiotic for each time point.
as §2, §3, §4, §5, §6

[6] = test system: HRT-18 cells; experiment: Intracellular accumulation of macrolides in HRT-18 cells; format: in vitro ADME, human; conditions: HRT-18 cells, 10 μg/mL antibiotic
Description: HRT-18 cells, in 6 cm tissue cultures dishes, were incubated in the presence of 0.5, 5 or 50 μg/mL tylvalosin. After 4 h, two dishes for each tylvalosin concentration and two dishes without antibiotic were removed from the incubator. A sample of medium (about 1 mL) was removed, placed in a labelled Eppendorf tube and stored at −20° C. The rest of the medium was then removed. Each of the cell monolayers was washed twice in PBS, using approximately 5 mL for each wash. The plunger from a 2 mL plastic syringe was used to gently scrape off the cells. PBS (500 μL) was added to the dish and the cells gently removed into this medium, using a micropipette. The sample was then placed in an Eppendorf tube and centrifuged at 8000×g in a bench centrifuge (Biofuge pico, Heraeus instruments) for 13 sec. An obvious cell pellet formed. The supernatant was removed using a micropipette and the cell material was stored at −20° C. in a labelled Eppendorf tube. After approximately 24 h the remaining tissue culture dishes were removed from the incubator and treated as described above for the 4 h samples. All the samples, including the 4 h samples, were then stored at −70° C.
HRT-18 cells were prepared as described above and used at passage 42. Stock solutions of antibiotics (either tylvalosin, tylosin or tilmicosin) were diluted in growth media and 10 μg/mL each antibiotic was added to the confluent cell monolayers. The cells were incubated at 37° C. in a 5% CO2 atmosphere for either 4 h or 24 h. The media and cells were harvested and tested for antibiotic, as described above.
as §2, §3, §4, §5, §6

[7] = test system: VR2332 (US strain of PRRSV); experiment: VR2332 (US strain of PRRSV) entry assay in MA104 cells (Example 10); conditions: 4 h pretreatment, moi 10, overnight
[8] = test system: PRRSV; conditions: has been shown; cited from earlier work

CC[C@H]1OC(=O)C[C@@H](O)[C@H](C)[C@@H](O[C@@H]2O[C@H](C)[C@@H](O)[C@H](N(C)C)[C@H]2O)[C@@H](CCN2C[C@H](C)C[C@H](C)C2)C[C@@H](C)C(=O)/C=C/C(C)=C/[C@@H]1CO[C@@H]1O[C@H](C)[C@@H](O)[C@@H](OC)[C@H]1OC (single isomer, unassigned) [tilmicosin, reference compound]
toxicity in cell culture assays of antiviral potency [1]: much more toxic than tylvalosin
average intracellular concentration ([2]; 15 min): 37.1 μg/mg cells
intracellular concentration ([2]; 60 min): 71.3 μg/mg cells
average intracellular concentration ([3]; 75 min): 4.98 μg/mg cells
intracellular:extracellular ratio ([3]; 120 min): 1.7
average intracellular concentration ([4]; 120 min): 8.6 μg/mg cells
average intracellular concentration ([4]; 240 min): 16.05 μg/mg cells
basolateral chamber content as average % of the apical chamber value ([4]; 240 min): 1.08%
intracellular:extracellular ratio (fold concentration) ([4]; 240 min): 2.5 fold
average intracellular concentration ([5]; 10 min): 31.25 μg/mg cells
average intracellular:extracellular ratio (IC:EC) ([5]; 10 min): 4.33
average intracellular:extracellular ratio (IC:EC) ([5]; 10 min, listed as Tilmicosin): 4
intracellular concentration ([5]; 20 min): 36 μg/mg cells
average intracellular concentration ([6]; 4 h): 7.24 μg/mg cells
intracellular:extracellular ratio ([6]; 4 h): 1.32 fold
average intracellular concentration ([6]; 24 h): 32.45 μg/mg cells
intracellular:extracellular ratio ([6]; 24 h): 4.64 fold
inhibition of VR2332 infection [7]: partial inhibition
effect on PRRSV [8]: effective

Source: US9649324B2, “Use of tylvalosin as antiviral agent” (ECO ANIMAL HEALTH LIMITED, priority 2006, dated 2017)
